# How the values were obtained:
# Zea mays = assay: Post-emergence application in field trials, ZEAMX; assay type: in vivo
# Description: (§1) In the examples below, using the method of S. R. Colby (1967) “Calculating synergistic and antagonistic responses of herbicide combinations”, Weeds 15, p. 22ff., the value E, which is expected if the activity of the individual active compounds is only additive, was calculated:
# (§2) [formula] • where • X=percent activity using active herbicide A at an application rate a; • Y=percent activity using active herbicide B (i.e. isoxaflutole) at an application rate b; • E=expected activity (in %) by A+B at application rates a+b.
# (§3) If the value found experimentally is higher than the value E calculated according to Colby, a synergistic effect is present.
# (§4) On field test sites, natural weed infestation or seeded weeds were treated post-emergence of the weeds.
# (§5) In the field trials, the weeds were treated as indicated below.
# (§6) In the following experiments, the herbicidal activity for the individual herbicidal compositions (solo and mixture applications) was assessed at the indicated days after treatment (DAT). The assessments for the damage on undesired weeds caused by the composition was carried out using a scale from 0 to 100%, compared to the untreated control plants. Here, 0 means no damage and 100 means complete destruction of the plants.
# (§7) Herbicide A-1 and isoxaflutole (240 g/l SC) were, together with addition of 0.25 v/v % MSO (methylated sed oil) as adjuvant, formulated in water as distribution medium (water volume 200 l/ha) and sprayed with commercial flat fan nozzles.
# (§8) Herbicide A-1 and isoxaflutole (240 g/l SC, Balance Flexx®) were, together with addition of 0.25 v/v % MSO (methylated sed oil) as adjuvant, formulated in water as distribution medium (water volume 200 l/ha) and sprayed with commercial flat fan nozzles.
# (§9) Herbicide A-1, isoxaflutole (240 g/l SC) and saflufenacil (342 g/l) were, together with addition of 0.25 v/v % MSO (methylated sed oil) as adjuvant, formulated in water as distribution medium (water volume 200 l/ha) and sprayed with commercial flat fan nozzles.
# (§10) Herbicide A-1, isoxaflutole (240 g/l SC), saflufenacil (342 g/l) and pyroxasulfone were, together with addition of 0.25 v/v % MSO (methylated sed oil) as adjuvant, formulated in water as distribution medium (water volume 200 l/ha) and sprayed with commercial flat fan nozzles.
# Echinochloa crus-galli = assay: Post-emergence application in field trials, ECHCG; assay type: in vivo
# Description: as §1, §2, §3, §4, §5, §6, §7, §8, §9, §10
# Amaranthus hybridus = assay: Post-emergence application in field trials, AMACH; assay type: in vivo; details: Table 1.1; AMACH growth stage 35; 21 DAT; 100 g ai/ha
# Description: as §1, §2, §3, §4, §5
# as §6, with “the plants. […]” for “the plants.”
# Abuthilon theophrasti = assay: Post-emergence application in field trials, ABUTH; assay type: in vivo; details: ABUTH growth stage 14-16
# Description: as §1, §2, §3, §4, §5, §6, §8
# HORVW = assay: Post-emergence application in field trials, HORVW; assay type: in vivo, Hordeum vulgare; details: HORVW height 20-25 cm, 100 g ai/ha
# Description: as §1, §2, §3, §4, §5, §6, §10
# Hordeum vulgare = assay: Post-emergence application in field trials, HORVX; assay type: in vivo; details: HORVX growth stage 23-29
# Description: as §1, §2, §3, §4, §5, §6, §8
# Euphorbia heterophylla = assay: Post-emergence application in field trials, EPHHL; assay type: in vivo; details: Table 1.1; EPHHL growth stage 35; 21 DAT; 100 g ai/ha
# Description: as §1, §2, §3, §4, §5
# as §6, with “the plants. […]” for “the plants.”
# Setaria verticillata = assay: Post-emergence application in field trials, SETVE; assay type: in vivo; details: SETVE growth stage 21-23
# Description: as §1, §2, §3, §4, §5, §6, §7, §8
# Datura stramonium = assay: Post-emergence application in field trials, DATST; assay type: in vivo; details: 100 g ai/ha
# Description: as §1, §2, §3, §4, §5, §6, §7, §9
# Amaranthus retroflexus = assay: Post-emergence application in field trials, AMARE; assay type: in vivo
# Description: as §1, §2, §3, §4, §5, §6, §8, §10
# Lolium multiflorum = assay: Post-emergence application in field trials, LOLMU; assay type: in vivo; details: LOLMU height 20-25 cm, 100 g ai/ha
# Description: as §1, §2, §3, §4, §5, §6, §10
# Ipomoea triloba = assay: Post-emergence application in field trials, IPOTR; assay type: in vivo; details: Table 1.1; IPOTR growth stage 35; 21 DAT; 100 g ai/ha
# Description: as §1, §2, §3, §4, §5
# as §6, with “the plants. […]” for “the plants.”
# Spermacoce latifolia = assay: Post-emergence application in field trials, BOILF; assay type: in vivo; details: Table 1.1; BOILF growth stage 40; 21 DAT; 100 g ai/ha
# Description: as §1, §2, §3, §4, §5, §6
# Herbicide A-1 and isoxaflutole (75% WG) were, together with addition of 0.5 v/v % MSO (methylated sed oil) as adjuvant, formulated in water as distribution medium (water volume 200 l/ha) and sprayed with commercial flat fan nozzles.
# Glycine max = assay: Post-emergence application in field trials, GLXMA; assay type: in vivo; details: GLXMA growth stage 13, 100 g ai/ha
# Description: as §1, §2, §3, §4, §5, §6, §7
smiles,measurement,setting,value
"CS(=O)(=O)c1cc(C(F)(F)F)ccc1C(=O)c1cnoc1C1CC1 [B, isoxaflutole]",% herbicidal activity,"Zea mays; Table 2.1, ZEAMX growth stage 15-16, 7 DAT, 100 g ai/ha",10%
same,% herbicidal activity,"Zea mays; Table 3.2, ZEAMX growth stage 15-16, 21 DAT, 56 g ai/ha",0%
same,% herbicidal activity,"Zea mays; Table 3.2, ZEAMX growth stage 15-16, 21 DAT, 80 g ai/ha",0%
same,% herbicidal activity,"Zea mays; Table 3.3, ZEAMX growth stage 15-16, 28 DAT, 56 g ai/ha",0%
same,% herbicidal activity,"Zea mays; Table 4.1, ZEAMX growth stage 15-16, height 25-30 cm, 7 DAT, 100 g ai/ha",10%
same,% herbicidal activity,"Zea mays; Table 5.12, 7 DAT, height 25-30 cm, B 100 g ai/ha",10%
same,% herbicidal activity,"Zea mays; Table 5.4, ZEAMX height 25-30 cm, 7 DAT, 100 g ai/ha",10%
same,% herbicidal activity,"Zea mays; Table 5.5, ZEAMX height 25-30 cm, 21 DAT, 100 g ai/ha",7%
same,% herbicidal activity,"Zea mays; Table 5.6, ZEAMX height 25-30 cm, 28 DAT, 100 g ai/ha",0%
same,% herbicidal activity,"Zea mays; Table 5.7, ZEAMX height 25-30 cm, 7 DAT, 100 g ai/ha",10%
same,% herbicidal activity,"Zea mays; Table 5.8, ZEAMX height 25-30 cm, 21 DAT, 100 g ai/ha",7%
same,% herbicidal activity,"Zea mays; Table 5.9, ZEAMX height 25-30 cm, 28 DAT, 100 g ai/ha",0%
same,% herbicidal activity,"Echinochloa crus-galli; Table 2.1, ECHCG growth stage 23-30, 7 DAT, 100 g ai/ha",40%
same,% herbicidal activity,"Echinochloa crus-galli; Table 3.1, ECHCG growth stage 23-30, 7 DAT, 80 g ai/ha",70%
same,% herbicidal activity,"Echinochloa crus-galli; Table 3.2, ECHCG growth stage 23-30, 21 DAT, 56 g ai/ha",80%
same,% herbicidal activity,"Echinochloa crus-galli; Table 3.2, ECHCG growth stage 23-30, 21 DAT, 80 g ai/ha",80%
same,% herbicidal activity,"Echinochloa crus-galli; Table 4.1, ECHCG growth stage 23-30, height 15-20 cm, 7 DAT, 100 g ai/ha",40%
same,% herbicidal activity,"Echinochloa crus-galli; Table 5.4, ECHCG height 15-20 cm, 7 DAT, 100 g ai/ha",40%
same,% herbicidal activity,Amaranthus hybridus,30%
same,% herbicidal activity,"Abuthilon theophrasti; Table 3.1, 7 DAT, 56 g ai/ha",40%
same,% herbicidal activity,"Abuthilon theophrasti; Table 3.2, 21 DAT, 56 g ai/ha",45%
same,% herbicidal activity,"Abuthilon theophrasti; Table 3.2, 21 DAT, 80 g ai/ha",65%
same,% herbicidal activity,"Abuthilon theophrasti; Table 3.4, 42 DAT, 56 g ai/ha",45%
same,% herbicidal activity,"Abuthilon theophrasti; Table 3.4, 42 DAT, 80 g ai/ha",60%
same,% herbicidal activity,"HORVW; Table 5.5, 21 DAT",10%
same,% herbicidal activity,"HORVW; Table 5.6, 28 DAT",10%
same,% herbicidal activity,"HORVW; Table 5.8, 21 DAT",10%
same,% herbicidal activity,"Hordeum vulgare; Table 3.1, 7 DAT, 56 g ai/ha",10%
same,% herbicidal activity,"Hordeum vulgare; Table 3.1, 7 DAT, 80 g ai/ha",10%
same,% herbicidal activity,"Hordeum vulgare; Table 3.2, 21 DAT, 56 g ai/ha",10%
same,% herbicidal activity,"Hordeum vulgare; Table 3.2, 21 DAT, 80 g ai/ha",10%
same,% herbicidal activity,Euphorbia heterophylla,22%
same,% herbicidal activity,"Setaria verticillata; Table 2.1, 7 DAT, 100 g ai/ha",20%
same,% herbicidal activity,"Setaria verticillata; Table 3.4, 42 DAT, 56 g ai/ha",20%
same,% herbicidal activity,"Datura stramonium; Table 2.1, DATST growth stage 14-16, 7 DAT",25%
same,% herbicidal activity,"Datura stramonium; Table 2.3, DATST growth stage 14-16, 21 DAT",50%
same,% herbicidal activity,"Datura stramonium; Table 4.2, DATST growth stage 14-16, height 5-10 cm, 42 DAT",50%
same,% herbicidal activity,"Amaranthus retroflexus; Table 3.4, AMARE growth stage 31-49, 42 DAT, 80 g ai/ha",45%
same,% herbicidal activity,"Amaranthus retroflexus; Table 5.4, AMARE height 8-20 cm, 7 DAT, 100 g ai/ha",30%
same,% herbicidal activity,"Lolium multiflorum; Table 5.4, 7 DAT",20%
same,% herbicidal activity,"Lolium multiflorum; Table 5.8, 21 DAT",20%
same,% herbicidal activity,Ipomoea triloba,19%
same,% herbicidal activity,Spermacoce latifolia,27%
same,% herbicidal activity,"Glycine max; Table 2.1, 7 DAT",25%
same,% herbicidal activity,"Glycine max; Table 2.2, 21 DAT",35%
same,% herbicidal activity,"Glycine max; Table 2.3, 21 DAT",40%

# Reference: patent publication US12616201B2, “Herbicidal compositions comprising isoxaflutole” (BASF SE, priority 2024, dated 2026)
